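Each compound was tested at five concentrations against cells in 96-well plates for 48 hours. TGI denotes the concentration required for complete inhibition of growth.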
How the values were obtained:
Test in all cases: NCI tumour cell line growth inhibition, 48 h
786-0 renal = tested on: 786-0 renal
A498 renal = tested on: A498 renal
A549 NSCLC = tested on: A549 NSCLC
ACHN renal = tested on: ACHN renal
BT-549 breast = tested on: BT-549 breast
CAKI-1 renal = tested on: CAKI-1 renal
CCRF-CEM leukemia = tested on: CCRF-CEM leukemia
COLO 205 colon = tested on: COLO 205 colon
DLD-1 colon = tested on: DLD-1 colon
DMS 114 small cell lung = tested on: DMS 114 small cell lung
DMS 273 small cell lung = tested on: DMS 273 small cell lung
DU-145 prostate = tested on: DU-145 prostate
EKVX NSCLC = tested on: EKVX NSCLC
HCC-2998 colon = tested on: HCC-2998 colon
HCT-116 colon = tested on: HCT-116 colon
HCT-15 colon = tested on: HCT-15 colon
HL-60(TB) leukemia = tested on: HL-60(TB) leukemia
HOP-18 NSCLC = tested on: HOP-18 NSCLC
HOP-62 NSCLC = tested on: HOP-62 NSCLC
HOP-92 NSCLC = tested on: HOP-92 NSCLC
HS 578T breast = tested on: HS 578T breast
HT29 colon = tested on: HT29 colon
IGROV1 ovarian = tested on: IGROV1 ovarian
K-562 leukemia = tested on: K-562 leukemia
KM12 colon = tested on: KM12 colon
KM20L2 colon = tested on: KM20L2 colon
LOX IMVI melanoma = tested on: LOX IMVI melanoma
LXFL 529 NSCLC = tested on: LXFL 529 NSCLC
M14 melanoma = tested on: M14 melanoma
M19-MEL melanoma = tested on: M19-MEL melanoma
MALME-3M melanoma = tested on: MALME-3M melanoma
MCF7 breast = tested on: MCF7 breast
MDA-MB-231 breast = tested on: MDA-MB-231 breast
MDA-MB-435 = tested on: MDA-MB-435
MDA-N = tested on: MDA-N
MOLT-4 leukemia = tested on: MOLT-4 leukemia
NCI-H226 lung = tested on: NCI-H226 lung
NCI-H23 lung = tested on: NCI-H23 lung
NCI-H460 lung = tested on: NCI-H460 lung
NCI-H522 lung = tested on: NCI-H522 lung
NCI/ADR-RES ovarian = tested on: NCI/ADR-RES ovarian
OVCAR-3 ovarian = tested on: OVCAR-3 ovarian
OVCAR-4 ovarian = tested on: OVCAR-4 ovarian
OVCAR-5 ovarian = tested on: OVCAR-5 ovarian
OVCAR-8 ovarian = tested on: OVCAR-8 ovarian
PC-3 prostate = tested on: PC-3 prostate
RPMI-8226 leukemia = tested on: RPMI-8226 leukemia
RXF 393 renal = tested on: RXF 393 renal
RXF-631 renal = tested on: RXF-631 renal
SF-268 CNS = tested on: SF-268 CNS
SF-295 CNS = tested on: SF-295 CNS
SF-539 CNS = tested on: SF-539 CNS
SK-MEL-2 melanoma = tested on: SK-MEL-2 melanoma
SK-MEL-28 melanoma = tested on: SK-MEL-28 melanoma
SK-MEL-5 melanoma = tested on: SK-MEL-5 melanoma
SK-OV-3 ovarian = tested on: SK-OV-3 ovarian
SN12C renal = tested on: SN12C renal
SNB-19 CNS = tested on: SNB-19 CNS
SNB-75 CNS = tested on: SNB-75 CNS
SNB-78 CNS = tested on: SNB-78 CNS
SR leukemia = tested on: SR leukemia
SW-620 colon = tested on: SW-620 colon
T-47D breast = tested on: T-47D breast
TK-10 renal = tested on: TK-10 renal
U251 CNS = tested on: U251 CNS
UACC-257 melanoma = tested on: UACC-257 melanoma
UACC-62 melanoma = tested on: UACC-62 melanoma
UO-31 renal = tested on: UO-31 renal
XF 498 CNS = tested on: XF 498 CNS
P388 leukemia = tested on: P388 leukemia
SN12K1 renal = tested on: SN12K1 renal

With `O=C1CCC(C(=O)O)C2=C1CCCC2` (stereo not given) the TGI (786-0 renal) was > 100 µM, the TGI (A498 renal) was > 100 µM and the TGI (A549 NSCLC) was > 100 µM. For the same compound, the TGI (ACHN renal) was > 100 µM, the TGI (BT-549 breast) was > 100 µM and the TGI (CAKI-1 renal) was > 100 µM. For the same compound, the TGI (CCRF-CEM leukemia) was > 100 µM, the TGI (COLO 205 colon) was > 100 µM and the TGI (DLD-1 colon) was > 100 µM. For the same compound, the TGI (DMS 114 small cell lung) was > 100 µM, the TGI (DMS 273 small cell lung) was > 100 µM and the TGI (DU-145 prostate) was > 100 µM. The TGI (EKVX NSCLC) was > 100 µM, the TGI (HCC-2998 colon) was > 100 µM and the TGI (HCT-116 colon) was > 100 µM. The TGI (HCT-15 colon) was > 100 µM, the TGI (HL-60(TB) leukemia) was > 100 µM and the TGI (HOP-18 NSCLC) was > 100 µM. The TGI (HOP-62 NSCLC) was > 100 µM, the TGI (HOP-92 NSCLC) was > 100 µM and the TGI (HS 578T breast) was > 100 µM. For the same compound, the TGI (HT29 colon) was > 100 µM, the TGI (IGROV1 ovarian) was > 100 µM and the TGI (K-562 leukemia) was > 100 µM. For the same compound, the TGI (KM12 colon) was > 100 µM, the TGI (KM20L2 colon) was > 100 µM and the TGI (LOX IMVI melanoma) was > 100 µM. For the same compound, the TGI (LXFL 529 NSCLC) was > 100 µM, the TGI (M14 melanoma) was > 100 µM and the TGI (M19-MEL melanoma) was > 100 µM. For the same compound, the TGI (MALME-3M melanoma) was > 100 µM, the TGI (MCF7 breast) was > 100 µM and the TGI (MDA-MB-231 breast) was > 100 µM. The TGI (MDA-MB-435) was > 100 µM, the TGI (MDA-N) was > 100 µM and the TGI (MOLT-4 leukemia) was > 100 µM. The TGI (NCI-H226 lung) was > 21.5 µM, the TGI (NCI-H23 lung) was > 100 µM and the TGI (NCI-H460 lung) was > 100 µM. The TGI (NCI-H522 lung) was > 100 µM, the TGI (NCI/ADR-RES ovarian) was > 100 µM and the TGI (OVCAR-3 ovarian) was > 100 µM. The TGI (OVCAR-4 ovarian) was > 100 µM, the TGI (OVCAR-5 ovarian) was > 100 µM and the TGI (OVCAR-8 ovarian) was > 100 µM. The TGI (PC-3 prostate) was > 100 µM, the TGI (RPMI-8226 leukemia) was > 100 µM and the TGI (RXF 393 renal) was > 100 µM. The TGI (RXF-631 renal) was > 100 µM, the TGI (SF-268 CNS) was > 100 µM and the TGI (SF-295 CNS) was > 100 µM. For the same compound, the TGI (SF-539 CNS) was > 100 µM, the TGI (SK-MEL-2 melanoma) was > 100 µM and the TGI (SK-MEL-28 melanoma) was > 100 µM. For the same compound, the TGI (SK-MEL-5 melanoma) was > 100 µM, the TGI (SK-OV-3 ovarian) was > 100 µM and the TGI (SN12C renal) was > 100 µM. For the same compound, the TGI (SNB-19 CNS) was > 100 µM, the TGI (SNB-75 CNS) was > 100 µM and the TGI (SNB-78 CNS) was > 100 µM. For the same compound, the TGI (SR leukemia) was > 100 µM, the TGI (SW-620 colon) was > 100 µM and the TGI (T-47D breast) was > 100 µM. For the same compound, the TGI (TK-10 renal) was > 100 µM, the TGI (U251 CNS) was > 29.8 µM and the TGI (UACC-257 melanoma) was > 100 µM. The TGI (UACC-62 melanoma) was > 100 µM, the TGI (UO-31 renal) was > 100 µM and the TGI (XF 498 CNS) was > 100 µM.
`CCOCCOc1ccc(OCCOCC)cc1` was tested, and the TGI (A498 renal) was > 61.8 µM, the TGI (A549 NSCLC) was > 100 µM and the TGI (CCRF-CEM leukemia) was 9.84 µM. For the same compound, the TGI (COLO 205 colon) was 33.3 µM, the TGI (DLD-1 colon) was 28.2 µM and the TGI (DMS 114 small cell lung) was 17.1 µM. For the same compound, the TGI (DMS 273 small cell lung) was > 58.4 µM, the TGI (HCC-2998 colon) was > 100 µM and the TGI (HCT-116 colon) was 33.4 µM. It also gave a TGI (HCT-15 colon) of 40.3 µM, a TGI (HL-60(TB) leukemia) of 12.7 µM and a TGI (HOP-18 NSCLC) of 61.3 µM. The TGI (HOP-62 NSCLC) was > 100 µM, the TGI (HT29 colon) was 38.9 µM and the TGI (IGROV1 ovarian) was 38 µM. The TGI (K-562 leukemia) was 24.2 µM, the TGI (KM12 colon) was > 100 µM and the TGI (KM20L2 colon) was 47.2 µM. For the same compound, the TGI (LOX IMVI melanoma) was 33.8 µM, the TGI (M19-MEL melanoma) was > 62.5 µM and the TGI (MALME-3M melanoma) was 45.8 µM. For the same compound, the TGI (MCF7 breast) was 32.9 µM, the TGI (MOLT-4 leukemia) was > 43 µM and the TGI (NCI-H226 lung) was > 73.1 µM. The TGI (NCI-H23 lung) was > 100 µM, the TGI (NCI-H460 lung) was > 73.7 µM and the TGI (NCI/ADR-RES ovarian) was 39.3 µM. For the same compound, the TGI (OVCAR-3 ovarian) was > 49.3 µM, the TGI (OVCAR-4 ovarian) was 20.7 µM and the TGI (OVCAR-5 ovarian) was > 100 µM. The TGI (OVCAR-8 ovarian) was 35.4 µM, the TGI (P388 leukemia) was > 100 µM and the TGI (RPMI-8226 leukemia) was 26.4 µM. The TGI (RXF 393 renal) was 33 µM, the TGI (SF-268 CNS) was 36 µM and the TGI (SF-295 CNS) was > 57.2 µM. For the same compound, the TGI (SK-MEL-2 melanoma) was > 63.7 µM, the TGI (SK-MEL-28 melanoma) was 40.8 µM and the TGI (SK-MEL-5 melanoma) was > 54 µM. The TGI (SK-OV-3 ovarian) was > 100 µM, the TGI (SN12C renal) was 31.8 µM and the TGI (SN12K1 renal) was 31.6 µM. For the same compound, the TGI (SNB-19 CNS) was > 100 µM, the TGI (SNB-75 CNS) was 52.8 µM and the TGI (SNB-78 CNS) was > 57.7 µM. The TGI (SW-620 colon) was 40.1 µM, the TGI (U251 CNS) was > 100 µM and the TGI (UACC-257 melanoma) was 32.3 µM. It also gave a TGI (UACC-62 melanoma) of 38.7 µM, a TGI (UO-31 renal) of 26.9 µM and a TGI (XF 498 CNS) of 30.1 µM.

From PubChem BioAssay (NCI)
